Data taken from patent publication US20230087439A1, “Nmr-Metabolite-Signature For Identifying Cancer Patients Resistant To Cdk4/6 Inhibitors, Endocrine Therapy and Anti-HER2 Therapy” (Olaris, inc., priority 2018, published 2023).
Values joined by “and” are separate entries in the source; they are usually repeats but may differ in a detail not shown here. Identical values can stand only once.

Tests used:
ER+/HER2− metastatic BC = assay: Retrospective study: tumor response and survival of metastatic BC patients treated with CDK4/6 inhibitors; assay type: in vivo, human; settings: palbociclib N=10, ribociclib N=14; for Non-responders (NR): at least 20% increase in sum of diameters of target tumors after 6 months; for Responders (R): at least 30% decrease in sum of diameters of target tumors after 6 months
Description: Here we describe a retrospective study analyzing plasma-based metabolites from a baseline (BL) sample and after 2-months (2M) of treatment of 24 women with ER+/HER2− metastatic BC treated with CDK4/6 inhibitors, palbociclib or ribociclib.

[1] = test system: adenoid cystic carcinomas of the salivary gland; settings: despite increased expression of c-kit; cited from earlier work
CYP2C19 = CYP2C19 (Homo sapiens, UniProt P33261); settings: off-target effect; cited from earlier work
CYP2A6 = target: T1, CYP2A6 (Homo sapiens, UniProt P11509); settings: off-target effect; cited from earlier work
T1 sequence (P11509 1-494): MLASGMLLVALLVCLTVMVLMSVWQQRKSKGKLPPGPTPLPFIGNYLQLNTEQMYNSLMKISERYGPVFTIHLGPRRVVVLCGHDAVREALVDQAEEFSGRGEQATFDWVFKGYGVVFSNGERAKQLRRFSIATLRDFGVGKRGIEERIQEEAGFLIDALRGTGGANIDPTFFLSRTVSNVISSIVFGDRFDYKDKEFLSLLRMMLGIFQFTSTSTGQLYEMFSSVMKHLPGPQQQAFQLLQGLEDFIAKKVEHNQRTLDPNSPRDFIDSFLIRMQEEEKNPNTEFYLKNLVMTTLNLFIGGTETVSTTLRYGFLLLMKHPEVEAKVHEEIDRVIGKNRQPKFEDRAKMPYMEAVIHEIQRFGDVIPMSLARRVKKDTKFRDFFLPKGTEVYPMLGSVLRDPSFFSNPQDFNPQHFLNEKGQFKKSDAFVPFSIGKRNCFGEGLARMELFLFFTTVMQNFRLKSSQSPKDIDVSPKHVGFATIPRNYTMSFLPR

CYP2C19, sequence (P33261 whole entry): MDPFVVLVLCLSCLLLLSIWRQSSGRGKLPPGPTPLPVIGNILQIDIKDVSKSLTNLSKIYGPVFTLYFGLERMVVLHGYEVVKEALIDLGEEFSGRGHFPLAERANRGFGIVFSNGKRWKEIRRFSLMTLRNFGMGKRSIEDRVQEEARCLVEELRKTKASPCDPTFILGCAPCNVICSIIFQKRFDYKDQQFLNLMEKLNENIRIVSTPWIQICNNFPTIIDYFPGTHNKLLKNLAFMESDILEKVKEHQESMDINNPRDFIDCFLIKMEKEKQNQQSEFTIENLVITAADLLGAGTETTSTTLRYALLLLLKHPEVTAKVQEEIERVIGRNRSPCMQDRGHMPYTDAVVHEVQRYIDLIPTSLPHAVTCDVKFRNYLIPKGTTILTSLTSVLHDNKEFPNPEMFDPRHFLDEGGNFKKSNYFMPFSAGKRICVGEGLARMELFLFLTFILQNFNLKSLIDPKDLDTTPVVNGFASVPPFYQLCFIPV

Compound	Non-responders (NR) (ER+/HER2− metastatic BC)	Responders (R) (ER+/HER2− metastatic BC)	effect on adenoid cystic carcinomas of the salivary gland [1]	inhibition of CYP2C19 (CYP2C19)	inhibition of CYP2A6 (CYP2A6)
CC(=O)c1c(C)c2cnc(Nc3ccc(N4CCNCC4)cn3)nc2n(C2CCCC2)c1=O [palbociclib]	3 patients	7			
Cc1ccc(NC(=O)c2ccc(CN3CCN(C)CC3)cc2)cc1Nc1nccc(-c2cccnc2)n1 [imatinib]			no effect		
CN(C)C(=O)c1cc2cnc(Nc3ccc(N4CCNCC4)cn3)nc2n1C1CCCC1 [ribociclib]	7 patients and 6 patients	8			
N#Cc1ccc(C(c2ccc(C#N)cc2)n2cncn2)cc1 [letrozole]				inhibits	inhibits
